The nature of data set [1]: Accelerated stability of 5 mg/mL levothyroxine in (acidified) DMSO: discoloration and RP-HPLC.
Protocol: To attempt to overcome these discoloration and degradation problems, levothyroxine solutions were prepared with either the free acid or the sodium salt of levothyroxine dissolved in acidified DMSO, at a levothyroxine sodium concentration of 5 mg/mL. To prepare acidified DMSO solvents, DMSO was acidified with 0-10 mM H2SO4 (from a 1.0 N H2SO4 stock solution), and samples were stored in 2 mL glass vials (0.5 mL fill volume per vial) and stored at 45° C. upright for 9 days for an accelerated stability analysis without any secondary packaging (e.g., foil pouch). Samples were then photographed (to examine discoloration) and examined via reverse phase HPLC (to examine levothyroxine chemical stability), comparing day 0 samples to day 9 samples (vs. a sample of each formulation that was frozen and held at −20° C. as a “time 0” control).
To determine if the discoloration observed with these formulations correlated with levothyroxine chemical degradation, samples of each vial were assessed via reverse phase HPLC (RP-HPLC).
Data set [2] is described as follows: Solubility of levothyroxine sodium in DMSO. The conditions noted are these: organic solvent or mixture. It is filed as physicochemical. The text has this: However, direct dissolution of levothyroxine sodium in DMSO (with no added excipients) caused rapid visual discoloration and chemical degradation (where the extent of discoloration generally correlates with degradation). […] Additionally, the chemical degradation appeared to be associated with the discoloration of the solution that was observed.

Data set [3] can be described thus: Storage stability of levothyroxine formulations in acidified DMSO (RP-HPLC T4/T3). In kind it is physicochemical. The conditions noted are these: 10 mg/mL in DMSO. The procedure: Based on the results shown above, formulations of levothyroxine sodium were prepared at an acid concentration that promoted chemical stability and a moisture content of at least 4% (w/w). […] The overall moisture content of the formulation was ~5% when prepared using 1.0 N H2SO4. The moisture content of this formulation was due almost entirely to the added sulfuric acid (with a minor contribution from the trehalose dihydrate), which at 26 mM (from a 1.0 N (0.5 M) stock solution) results in a moisture content~5% (w/w). When prepared using concentrated acid (e.g., 10 N), the overall moisture content of the formulation could be reduced to about ~1% without any significant impact on storage stability.
An example of the stability that can be achieved using this formulation approach at multiple temperatures for up to 6 months is shown in Table 1, which represents the purity of T4 (levothyroxine sodium) in the 10 mg/mL, 26-28 mM acid DMSO formulations described above, over time at various storage temperatures. Results shown are measurements of T4 vs. T3 (triiodothyronine, the main degradation product of T4), determined as described above via RP-HPLC. In this table, the higher the percentage of T4 and the lower the percentage of T3, the less degradation observed in the levothyroxine formulations over time.

For data set [4] the following is noted: cited from earlier work.

Some results are limits rather than exact numbers.

As to `N[C@@H](Cc1cc(I)c(Oc2cc(I)c(O)c(I)c2)c(I)c1)C(=O)O` [levothyroxine free acid], in data set [1] (5 mg/mL in DMSO, 0-2 mM H2SO4, 9 days at 45° C.), the “degradation by RP-HPLC” value is reported as “extensive degradation”. In data set [1] (5 mg/mL in DMSO, 0-10 mM H2SO4, day 0), the discoloration entry is listed as “did not show significant discoloration”. The “discoloration compared to levothyroxine sodium salt” value in data set [1] (5 mg/mL in DMSO, all concentrations of acid, 9 days at 45° C.) is on record as “lower amount of discoloration”. In addition, the “sulfuric acid concentration necessary to significantly enhance chemical stability” value in data set [1] (5 mg/mL solution in DMSO, accelerated stability testing) was ~ 10 mM.
Take `N[C@@H](Cc1cc(I)c(Oc2cc(I)c(O)c(I)c2)c(I)c1)C(=O)O` [levothyroxine sodium]: the solubility (commonly the concentration that dissolves in the medium under given conditions) in data set [2] was not below 30 mg/mL. For the same molecule, the entries for the “chemical stability (T4 peak purity) vs acid concentration” value in data set [3] (<26 mM sulfuric acid) and in data set [3] (above approximate 26 mM acid) were “extensive chemical degradation” and “chemical stability essentially plateaus”, respectively. The discoloration entry in data set [1] (5 mg/mL in DMSO, 10 mM H2SO4, 9 days at 45° C.) is reported as “no significant discoloration”; in data set [1] (5 mg/mL in DMSO, H2SO4 below 4 mM, day 0) it was “degradation-associated discoloration fairly quickly”.
For `N[C@@H](Cc1cc(I)c(Oc2cc(I)c(O)c(I)c2)c(I)c1)C(=O)O` [levothyroxine], in data set [4], the solubility in water is not above 0.1 mg/mL.

The record behind these values is patent US12691089B2, “Stable levothyroxine compositions in aprotic polar solvents” (Xeris Pharmaceuticals, Inc., priority 2022, dated 2026).
